According to patent US20230076803A1, “COMPOUND AND DRUG CONJUGATE, AND PREPARATION METHOD AND USE THEREOF” (priority 2019, published 2023):
Where two headings read alike, the source gives them in different places.

Assays:
[1] = 90% cynomolgus monkey plasma, 37° C., period of up to 72 hours
Description: Therein, 0 hour is the time when 10 μL of the mixed solution was taken immediately after the conjugate solution was mixed well with 90% cynomolgus monkey plasma. After sampling at each time point, each mixed solution was diluted 5-fold with 1×PBS (pH7.4), and 10 μL of each diluted mixed solution was taken for electrophoresis.
20 wt % of non-denatured polyacrylamide gel was prepared. The samples for electrophoresis in each group of the above diluted samples were mixed with 4 μL of loading buffer (20 mM EDTA, 36 wt % glycerol, and 0.06 wt % aqueous solution of bromophenol blue) and loaded into each gel well for electrophoresis under 80 mA constant current for 60 minutes. After electrophoresis, the gel was stained with 1×Sybr Gold dye (Invitrogen, Cat. 11494) for 15 minutes and imaged.

HBV mRNA [2] = test: Inhibition of HBV mRNA on day 70 (Exp. Ex. 2-7, FIG. 9); type: in vivo, AAV-HBV low concentration model mice; conditions: 1 mg/kg or 3 mg/kg, day 70 after administration
Description: (§1) The AAV-HBV low concentration model mice were used.
In a further experiment, the inhibitory effect on HBV mRNA on day 70 was tested according to the detection method of Example 6 above, and the results are shown in FIG. 9.

HBV DNA = test: Time course of serum HBV DNA in AAV-HBV low concentration model mice (Exp. Ex. 2-7); type: in vivo; conditions: 3 mg/kg subcutaneous single dose
Source text: as §1
Normalized expression level of HBV DNA=(HBV DNA content after administration/HBV DNA content before administration)×100%.

HBsAg [3] = conditions: M-Tg HBV mice, 3 mg/kg subcutaneous single dose, period of up to 70 days
Description: HBV transgenic mice: named as M-Tg HBV, purchased from the Animal Department of Shanghai Public Health Center. […] Hereinafter, the transgenic mice were sometimes abbreviated as M-Tg model mice;
M-Tg HBV mice (purchased from the Animal Department of Shanghai Public Health Center) were used. […] The AAV virus used is rAAV8-1.3HBV, type D (ayw) virus, purchased from Beijing FivePlus Molecular Medicine Institute Co. Ltd., 1×10^12 viral genome (v.g.)/mL, Lot No. 2016123011. The AAV virus was diluted to 5×10^11 v.g./mL with sterilized PBS prior to the experiment. Each mouse was injected with 200 μL (that is, each mouse was injected with 1×10^11 v.g). […] Each conjugate was administered in the form of 0.2 mg/mL or 0.6 mg/mL (both calculated based on siRNA) in 0.9% aqueous sodium chloride solution, with an administration volume of 5 mL/kg mouse body weight; that is, the administration doses of each conjugate (calculated based on siRNA) were 1 mg/kg and 3 mg/kg. […] The blood was collected from mouse orbital venous plexus before administration and on day 7, 14, 21, 28, 35, 42, 49, 63, and 70 days after administration, and the serum HBsAg level was determined at each time point. […]
The inhibition rate against HBsAg is calculated according to the following equation:
wherein HBsAg content is expressed as the equivalents (UI) of HBsAg per millilitre (mL) of serum.

HBV mRNA [4] = test: Inhibition of HBV mRNA expression in liver of 44Bri mice, day 7 (Exp. Ex. 2-6); type: in vivo, HBV transgenic mice C57BL/6J-Tg(Alb1HBV)44Bri/J; conditions: 1 mg/kg subcutaneous, day 7 after administration
Source text: (§2) HBV transgenic mice C57BL/6J-Tg(Alb1HBV)44Bri/J: purchased from Department of Laboratory Animal Science, Peking University Health Science Center. Mice with S/COV >10 were selected before the experiment. Hereinafter, the transgenic mice were sometimes abbreviated as 44Bri model mice;
In this experimental example, the inhibitory efficiency of different concentrations of Conjugate 32 on the expression level of HBV mRNA in HBV transgenic mice C57BL/6J-Tg (Alb1HBV) 44Bri/J was investigated. […]
The expression level of HBV mRNA in the liver tissue of each mouse was determined by real-time fluorescent quantitative PCR. Specifically, the total RNA extracted from the liver tissue of each mouse was reverse-transcribed into cDNA using ImProm-II™ reverse transcription kit (Promega) according to the instructions thereof, and then the expression level of HBV mRNA in liver tissue was determined by the fluorescent quantitative PCR kit (Beijing Cowin Biosciences Co., Ltd.) and the inhibitory efficiency was calculated. In this fluorescent quantitative PCR method, GAPDH gene was used as an internal control gene, and the HBV and GAPDH were detected by using the primers for HBV and GAPDH, respectively. […]

HBsAg [5] = conditions: AAV-HBV low concentration model mice, 3 mg/kg subcutaneous single dose
Description: The AAV-HBV low concentration model mice were used. After the animal models were successfully established, they were randomly divided into groups according to serum HBsAg content (five mice per group). […] The blank group was administered with only 5 mL/kg 1×PBS. Blood was collected from mouse orbital venous plexus before administration and on day 14, 28, 42, 56, 70, 84, 98, 112, 126, 140, 154, 168, 182, and 196 days after administration, and the serum HBsAg level was determined at each time point.
About 100 μL orbital blood was taken each time, and no less than 20 NL serum was collected after centrifugation. The HBsAg content in serum was determined by using HBsAg CLIA kit (Autobio, CL0310) according to the instructions provided by the manufacturer.
Normalized expression level of HBsAg=(HBsAg content after administration/HBsAg content before administration)×100%.

HBV mRNA [6] = test: Inhibition of HBV mRNA expression in liver of 44Bri mice, day 14 (Exp. Ex. 2-4); type: in vivo, HBV transgenic mice C57BL/6J-Tg(Alb1HBV)44Bri/J; conditions: 1 mg/kg subcutaneous single dose, day 14 after administration
Source text: as §2
In this experimental example, the inhibitory efficiency of Conjugate 32 on the expression level of HBV mRNA in HBV-transgenic mice C57BL/6J-Tg (A 1b1HBV) 44Bri/J was investigated.
The HBV transgenic mice C57BL/6J-Tg (Alb1HBV) 44Bri/J used in this experimental example were purchased from the Department of Laboratory Animal Science, Peking University Health Science Center. […]
For each mouse, 1 μg of total RNA was taken, and the extracted total RNA was reverse-transcribed into cDNA using ImProm-II™ reverse transcription kit (Promega Crop.) according to the instructions thereof to obtain a solution containing cDNA, and then the expression level of HBV mRNA in liver tissue was determined by the fluorescent quantitative PCR kit (Beijing Cowin Biosciences Co., Ltd.). In this fluorescent quantitative PCR method, R-actin gene was used as an internal control gene, and HBV and 3-actin were detected by using primers for HBV and β-actin, respectively. […]

[7] = SD rats, subcutaneous single dose 0.5 mg/kg and 1 mg/kg
Description: In this Experimental Example, the rats in each experimental group (10 rats in each group, half male and half female) were administered with Conjugate 32 by subcutaneous injection respectively at a single dose of 1 mg/kg and 0.5 mg/kg of rat body weight. The plasma drug concentration and liver tissue drug concentration in rats at each time point were then measured.
First, SD rats were randomly divided into groups according to the body weight and gender of the rat using the [sequence] version 7.2.0 data system, and then the conjugates were administered at the designed doses, respectively. All animals were dosed based on body weight and subcutaneously administered at a single doses of 1 and 0.5 mg/kg (provided in the form of 0.1 mg/mL and 0.05 mg/mL in 0.9% aqueous sodium chloride solution, with a volume of 10 mL/kg). The rat's whole blood was collected from the jugular vein before administration and 5 minutes (±30 seconds), 30 minutes (±1 minute), 1 hour (±2 minutes), 2 hours (±2 minutes), 6 hours (±5 minutes), 24 hours (±10 minutes), 48 hours (±20 minutes), 72 hours (±20 minutes), 120 hours (±30 minutes), and 168 hours (±30 minutes) after administration. […]
The concentration of Conjugate 32 in rat plasma and liver tissue was quantitatively determined by HPLC-FLD (High Performance Liquid Fluorescence Chromatography) according to the following steps: […]

Substance: Conjugate 32: siRNA conjugate, S SEQ ID NO 367, AS SEQ ID NO 368, Table 2A; conjugated via Compound N-62 (sense CCUUGAGGCAUACUUCAAA; antisense UUUGAAGUAUGCCUCAAGGUU; conjugated via Compound N-62, position not given here)
- stability in cynomolgus monkey plasma in vitro (semiquantitative) [1]: remain undegraded
- inhibitory effect on HBV mRNA on day 70 (HBV mRNA [2]): can still inhibit the expression level of HBV mRNA to a certain extent
- inhibition rate against HBV DNA in serum (HBV DNA): up to 85.7%
- inhibition rate against serum HBsAg (HBsAg [3]): up to 97.80%
- inhibition rate against HBV mRNA in liver tissue (HBV mRNA [4]): up to 91.96%
- inhibition rate against serum HBsAg (HBsAg [5]): up to 90.9%
- inhibition rate against HBV mRNA in liver tissue (HBV mRNA [6]): up to 89.86%
- concentration in rat plasma over time [7]: rapidly decreased to below detection limit within a few hours
- time for which the concentration in liver tissue maintained a higher and stable level [7]: at least 150 hours
